Species: Rattus norvegicus
Assay: DrugMatrix - Regimen: Daily Repeat
Assay type: toxicity, organism-based, Sprague-Dawley
Parameters: regimen Daily Repeat, gender Male, age 6-8 weeks
Details: in vivo, po, route oral GAVAGE, vehicle .5 % CMC; for ABSOLUTE BASOPHIL / ABSOLUTE EOSINOPHIL / ABSOLUTE LYMPHOCYTE / ABSOLUTE MONOCYTE / ABSOLUTE SEGMENTED NEUTROPHIL / BASOPHIL / EOSINOPHIL / ERYTHROCYTE COUNT / HEMATOCRIT / HEMOGLOBIN / LEUKOCYTE COUNT / LYMPHOCYTE / MEAN CORPUSCULAR HEMOGLOBIN / MEAN CORPUSCULAR HEMOGLOBIN CONCENTRATION / MEAN CORPUSCULAR VOLUME / MONOCYTE / NEUTROPHIL / NUCLEATED RED BLOOD CELLS / PLATELET COUNT: tissue Blood; for ALANINE AMINOTRANSFERASE / ALBUMIN / ALKALINE PHOSPHATASE / ASPARTATE AMINOTRANSFERASE / BLOOD UREA NITROGEN / CARBON DIOXIDE / CHLORIDE / CHOLESTEROL / CREATINE PHOSPHOKINASE / CREATININE / GLUCOSE / LACTATE DEHYDROGENASE / LIPASE / PHOSPHORUS / POTASSIUM / SODIUM / TOTAL BILIRUBIN / TOTAL PROTEIN / URIC ACID: tissue Plasma
[1] = 30 mg/kg, 120 h, dose level Low, time 5 day
[2] = 2000 mg/kg, 72 h, dose level High, time 3 day
[3] = 2000 mg/kg, 120 h, dose level High, time 5 day

CCOc1cc(N)c(Cl)cc1C(=O)NCC1CN(Cc2ccc(F)cc2)CCO1 (centres undefined) [MOSAPRIDE]
ABSOLUTE BASOPHIL [1]: 0 CELLS/uL
ABSOLUTE EOSINOPHIL [1]: 184 CELLS/uL
ABSOLUTE LYMPHOCYTE [1]: 14085.33 CELLS/uL
ABSOLUTE MONOCYTE [1]: 124 CELLS/uL
ABSOLUTE SEGMENTED NEUTROPHIL [1]: 940 CELLS/uL
BASOPHIL [1]: 0%
EOSINOPHIL [1]: 1.33%
ERYTHROCYTE COUNT [1]: 5.58 x10E6/uL
HEMATOCRIT [1]: 33.97%
HEMOGLOBIN [1]: 13.4 G/DL
LEUKOCYTE COUNT [1]: 15.33 x10E3/uL
LYMPHOCYTE [1]: 91.33%
MEAN CORPUSCULAR HEMOGLOBIN [1]: 24.07 pg
MEAN CORPUSCULAR HEMOGLOBIN CONCENTRATION [1]: 39.43 G/DL
MEAN CORPUSCULAR VOLUME [1]: 61 fL
MONOCYTE [1]: 1%
NEUTROPHIL [1]: 6.33%
NUCLEATED RED BLOOD CELLS [1]: 0 /100WBC
PLATELET COUNT [1]: 1230 x10E3/uL
ALANINE AMINOTRANSFERASE [1]: 47 u/L
ALBUMIN [1]: 4.27 G/DL
ALKALINE PHOSPHATASE [1]: 395.67 u/L
ASPARTATE AMINOTRANSFERASE [1]: 103 u/L
BLOOD UREA NITROGEN [1]: 14.67 mg/dL
CARBON DIOXIDE [1]: 21.33 mmol/L
CHLORIDE [1]: 104.33 MEQ/L
CHOLESTEROL [1]: 72.33 mg/dL
CREATINE PHOSPHOKINASE [1]: 763 u/L
CREATININE [1]: 0.22 mg/dL
GLUCOSE [1]: 150.33 mg/dL
LACTATE DEHYDROGENASE [1]: 650.33 u/L
LIPASE [1]: 9.67 u/L
PHOSPHORUS [1]: 11.1 mg/dL
POTASSIUM [1]: 5.84 MEQ/L
SODIUM [1]: 144.4 MEQ/L
TOTAL BILIRUBIN [1]: 0.23 mg/dL
TOTAL PROTEIN [1]: 5.97 G/DL
URIC ACID [1]: 1.73 mg/dL
ABSOLUTE BASOPHIL [2]: 0 CELLS/uL
ABSOLUTE EOSINOPHIL [2]: 82 CELLS/uL
ABSOLUTE LYMPHOCYTE [2]: 11383.33 CELLS/uL
ABSOLUTE MONOCYTE [2]: 248.67 CELLS/uL
ABSOLUTE SEGMENTED NEUTROPHIL [2]: 719.33 CELLS/uL
BASOPHIL [2]: 0%
EOSINOPHIL [2]: 0.67%
ERYTHROCYTE COUNT [2]: 6.66 x10E6/uL
HEMATOCRIT [2]: 42.47%
HEMOGLOBIN [2]: 16.67 G/DL
LEUKOCYTE COUNT [2]: 12.43 x10E3/uL
LYMPHOCYTE [2]: 91.33%
MEAN CORPUSCULAR HEMOGLOBIN [2]: 25.07 pg
MEAN CORPUSCULAR HEMOGLOBIN CONCENTRATION [2]: 39.27 G/DL
MEAN CORPUSCULAR VOLUME [2]: 63.83 fL
MONOCYTE [2]: 2%
NEUTROPHIL [2]: 6%
NUCLEATED RED BLOOD CELLS [2]: 0 /100WBC
PLATELET COUNT [2]: 1265 x10E3/uL
ALANINE AMINOTRANSFERASE [2]: 92.67 u/L
ALBUMIN [2]: 4.43 G/DL
ALKALINE PHOSPHATASE [2]: 485 u/L
ASPARTATE AMINOTRANSFERASE [2]: 204 u/L
BLOOD UREA NITROGEN [2]: 18 mg/dL
CARBON DIOXIDE [2]: 19 mmol/L
CHLORIDE [2]: 95 MEQ/L
CHOLESTEROL [2]: 234.67 mg/dL
CREATINE PHOSPHOKINASE [2]: 2551 u/L
CREATININE [2]: 0.29 mg/dL
GLUCOSE [2]: 119.67 mg/dL
LACTATE DEHYDROGENASE [2]: 1110.67 u/L
LIPASE [2]: 14.67 u/L
PHOSPHORUS [2]: 14.47 mg/dL
POTASSIUM [2]: 7.66 MEQ/L
SODIUM [2]: 141.13 MEQ/L
TOTAL BILIRUBIN [2]: 0.47 mg/dL
TOTAL PROTEIN [2]: 6.5 G/DL
URIC ACID [2]: 2.7 mg/dL
ABSOLUTE BASOPHIL [3]: 0 CELLS/uL
ABSOLUTE EOSINOPHIL [3]: 63.33 CELLS/uL
ABSOLUTE LYMPHOCYTE [3]: 17542.67 CELLS/uL
ABSOLUTE MONOCYTE [3]: 192.67 CELLS/uL
ABSOLUTE SEGMENTED NEUTROPHIL [3]: 1468 CELLS/uL
BASOPHIL [3]: 0%
EOSINOPHIL [3]: 0.33%
ERYTHROCYTE COUNT [3]: 6.35 x10E6/uL
HEMATOCRIT [3]: 38.03%
HEMOGLOBIN [3]: 14.87 G/DL
LEUKOCYTE COUNT [3]: 19.27 x10E3/uL
LYMPHOCYTE [3]: 91%
MEAN CORPUSCULAR HEMOGLOBIN [3]: 23.37 pg
MEAN CORPUSCULAR HEMOGLOBIN CONCENTRATION [3]: 39.1 G/DL
MEAN CORPUSCULAR VOLUME [3]: 59.8 fL
MONOCYTE [3]: 1%
NEUTROPHIL [3]: 7.67%
NUCLEATED RED BLOOD CELLS [3]: 0 /100WBC
PLATELET COUNT [3]: 1370.33 x10E3/uL
ALANINE AMINOTRANSFERASE [3]: 101.67 u/L
ALBUMIN [3]: 4.07 G/DL
ALKALINE PHOSPHATASE [3]: 465 u/L
ASPARTATE AMINOTRANSFERASE [3]: 89.67 u/L
BLOOD UREA NITROGEN [3]: 18.33 mg/dL
CARBON DIOXIDE [3]: 25.67 mmol/L
CHLORIDE [3]: 100 MEQ/L
CHOLESTEROL [3]: 227.67 mg/dL
CREATINE PHOSPHOKINASE [3]: 489.33 u/L
CREATININE [3]: 0.22 mg/dL
GLUCOSE [3]: 124.33 mg/dL
LACTATE DEHYDROGENASE [3]: 134 u/L
LIPASE [3]: 12.67 u/L
PHOSPHORUS [3]: 12.77 mg/dL
POTASSIUM [3]: 6.56 MEQ/L
SODIUM [3]: 145.37 MEQ/L
TOTAL BILIRUBIN [3]: 0.2 mg/dL
TOTAL PROTEIN [3]: 6.2 G/DL
URIC ACID [3]: 1.77 mg/dL

— ChEMBL document CHEMBL3885881, “DrugMatrix”
